In PMC9231138, “Dihydrotanshinone I Enhances Cell Adhesion and Inhibits Cell Migration in Osteosarcoma U−2 OS Cells through CD44 and Chemokine Signaling” (Molecules, 2022):

How the values were obtained:
Format in all cases: cell-based, human
[1] = tested on: CD44; test: CD44 expression by immunofluorescence; conditions: DS−1 2.5, 5.0, and 7.5 µM for 24 h
Protocol: Figure 7 DS−1 enhanced U−2 OS cells’ adhesion. (A) The morphological changes of U−2 OS cells treated with/without DS−1. Cells were treated with 0 and 7.5 μM DS−1 for 24 h, washed with PBS, and digested with trypsin at 25 °C under a microscope, and photos were taken every 30 s. The percentages of digested cells are recorded in (B). (C) Heatmap of genes related to the adherens’ junction in the control group and DS−1 group. (D) U−2 OS cells were treated with 0 and 7.5 μM DS−1 for 24 h, and the expression of CD44 was observed by immunofluorescence. (E,F) CD44 and GAPDH were analyzed by Western blot and calculated by Image J. (G) The relative expression of 4 kinds of MT-MMPs was analyzed by the transcriptome, as shown in the heatmap. (H) After being treated with DS−1, the relative expression of MT-MMP-1 was verified by RT-PCR. Values are the average of three independent experiments, * p < 0.05, ** p < 0.01, *** p < 0.005.
Coverslip preparation: we cultured U−2 OS cells on sterile glass coverslips in 24-well plates and then treated them with DS−1 at different concentrations.
Fixation and staining: We washed the cells with PBS 3 times and fixed the cells with 200 μL 4% paraformaldehyde/PBS solution at 4 °C for 15 min. We then rinsed 3 times with PBS and permeabilized with 200 μL 0.2% TritonX-100 at room temperature for 30 min. […]

[2] = tested on: phospho-STAT3; test: Western blot phospho-STAT3; conditions: 24 h
Protocol: Sample preparation: U−2 OS cells seeded in 10 cm Petri dishes were collected and washed with ice-cold PBS and RIPA lysis buffer with PMAF; phosphatase inhibitor was added, and the tubes were placed on ice for 30 min and vortexed for 30 s at intervals of 10 min. The samples were centrifuged at 12,000 g at 4 °C for 15 min, and the supernatants were collected in new centrifuge tubes. The protein samples were placed on ice, and the concentration of each protein sample was measured by the BCA kit (Thermo). The protein concentration was adjusted to the same by milli Q ultrapure water.
Loading and running the gel: Equal amounts of protein were loaded into the wells of the 10% SDS-PAGE gel, along with molecular weight markers, and 15 μg of total protein from the cell lysate was loaded. We then ran the gel for 45 min at 200 V.
Transferring the protein: We prepared the transfer stack as follows: negative plate, sponge, filter paper, gel, PVDF membrane, filter paper, sponge, and positive plate. The transfer was for 90 min at 200 mA.
Antibody staining: We blocked the membrane for 1 h at room temperature using 5% blocking solution, then incubated the membrane with appropriate dilutions of the primary antibody in the blocking solution overnight at 4 °C. We then washed the membrane with TBST reagent 3 times, 5 min each. Then, we incubated the membrane with the recommended dilution of labeled secondary antibody in blocking solution at room temperature for 1 h and washed the membrane with TBST reagent 3 times, 5 min each. For signal development, super-enhanced chemiluminescence detection reagents were added to the surface of the membrane for 1 min, then excess reagent was removed, and the membrane was covered in transparent plastic wrap. Images were acquired using darkroom development techniques for chemiluminescence and analyzed by Image J.

[3] = tested on: CDK2; test: RT-PCR CDK2 mRNA in U−2 OS cells; conditions: 24 h
Protocol: Total RNA within cells was extracted by the RNAeasy™ Animal Long RNA Isolation Kit with Spin Column (Shanghai, Beyotime); the concentrations and OD260/OD280 and OD230/OD260 values were measured by NanoDrop. Five micrograms of RNA was used for reverse transcription; each sample was diluted to 16 μL, and 4 μL of synthesized premix solution (5×) was added, then the mixtures were placed in a 42 °C water bath for 10 min, then an 80 °C water bath for 10 min to deactivate reverse transcriptase. After reverse transcription, each sample was diluted to 140 μL. PCR amplification was carried out by the ABI700 real-time PCR system, and the amplification reaction was detected with a SYBR probe. After PCR, actin and GAPDH were used as internal references, and the relative standard curve method (2^−ΔΔcT) determined the relative expression of mRNA.

Compound: Cc1cccc2c3c(ccc12)C1=C(C(=O)C3=O)[C@@H](C)CO1 [DS−1, 15,16-Dihydrotanshinone I]
- CD44 expression [1]: significantly increased
- phospho-STAT3, fold of the control group ([2]; DS−1 2.5 µM): 0.59 ± 0.09 fold
- phospho-STAT3, fold of the control group ([2]; DS−1 5.0 µM): 0.43 ± 0.03 fold
- phospho-STAT3, fold of the control group ([2]; DS−1 7.5 µM): 0.32 ± 0.03 fold
- ratio of pSTAT3/STAT3 ([2]; DS−1 2.5, 5.0, and 7.5 µM): significantly decreased
- CDK2 mRNA, fold of the control group ([3]; first of three DS−1 doses (2.5 µM per Fig. 5 legend)): 0.85 ± 0.08 fold
- CDK2 mRNA, fold of the control group ([3]; second of three DS−1 doses (5.0 µM per Fig. 5 legend)): 0.80 ± 0.16 fold
- CDK2 mRNA, fold of the control group ([3]; third of three DS−1 doses (7.5 µM per Fig. 5 legend)): 0.66 ± 0.07 fold
